Structures are written as SMILES. Where a name gives a salt, the structure may show the parent alone. A value given as a limit tells only on which side of the number the result lay.

Consider four molecules from patent US11116764B2, “Combination of pure 5-HT6 receptor antagonists with NMDA receptor antagonist” (SUVEN LIFE SCIENCES LIMITED, priority 2016, dated 2021).

The test system of experiment [1] is Male Wistar rats. The experiment in a line: Object recognition task model. It counts as in vivo, rat. Conditions: choice trial T2, 24 hours after T1; compared to the vehicle treatment. Here is the method:
Four animals were housed in each cage. […] Water was provided ad libitum throughout the experiment. […] Rats received vehicle or test compounds or memantine or test compound and memantine, before familiar (T1) and choice (T2) trials. […] During the T1 and T2 trial, explorations of each object (defined as sniffing, licking, chewing or having moving vibrissae whilst directing the nose towards the object at a distance of less than 1 cm) were recorded using stopwatch.

The subject of experiment [2] is Male Wistar rats. As to the kind of experiment: Evaluation of theta modulation in dorsal hippocampus of anesthetized male Wistar rats. In kind it is in vivo, rat. The conditions noted are these: memantine 1 mg/kg i.v. alone or 30 min after compound 1 1 mg/kg i.v. The text has this:
[…]. Academic Press, New York Results:

The test system of experiment [3] is Male Wistar rats. As to the kind of experiment: Evaluation of acetylcholine modulation in ventral hippocampus of male Wistar rats (microdialysis). In kind it is in vivo, rat. Conditions: memantine 1 mg/kg s.c. alone or with compound 1 3 mg/kg p.o.; combination compared to memantine alone. The text has this: Evaluation of Acetylcholine Modulation in Ventral Hippocampus of Male Wistar Rats Experimental Procedure:
Male Wistar rats (240-300 g body weight) were stereotaxically implanted with a microdialysis guide cannula in ventral hippocampus (AP: −5.2 mm, ML: +5.0 mm, DV: −3.8 mm) under isoflurane anesthesia. Co-ordinates were taken according to atlas for the rat brain (Paxinos and Watson 2004) with reference points taken from bregma and vertical from the skull. The rats were allowed to recover individually for four-five days in a round bottom Plexiglas bowl with free access to feed and water.
After surgical recovery of 4-5 days, male Wistar rats were connected to dual quartz lined two-channel liquid swivel (Instech, UK) on a counter balance lever arm, which allowed unrestricted movements of the animal. […]
Acetylcholine in dialysate was quantified using LC-MS/MS method in the calibration range of 0.099 nmol/L-70.171 nmol/L.
All microdialysis data for acetylcholine was plotted as percent change from mean dialysate basal concentrations with 100% defined as the average of five pre-dose values. […] Area under the curve (AUC) values for percent change in acetylcholine levels were calculated and the statistical significance between the mean AUC value were compared against memantine treatment using one-way ANOVA followed by Dunnett's test. […]

For experiment [4], the target named is human recombinant 5-HT2A receptor (Homo sapiens (Human), UniProt P28223). As to the kind of experiment: Determination of Ki value at 5-HT2A receptor ([3H]-Ketanserine radioligand binding). Conditions: [3H]-Ketanserine 1.75 nM, average of three independent experiments. On the procedure: Determination of Ki Value at 5-HT2A Receptor
Compound was tested according to the following procedures.
Receptor source: Recombinant mammalian cells
Radioligand: [^3H]-Ketanserine (47.3 Ci/mmol)
Final ligand concentration—[1.75 nM]
Non-Specific Ligand: 0.1 mM 1-Naphthylpiperazine (1-NP)
Reference compound: 1-Naphthylpiperazine (1-NP)
Positive control: 1-Naphthylpiperazine (1-NP)
Incubation conditions: Reactions were carried out in 67 mM Tris-HCl (pH 7.4) for 4 hours at 37° C. The reaction was terminated by rapid vacuum filtration onto the glass fiber filters. Radioactivity trapped onto the filters was determined and compared to the control values in order to ascertain any interactions of the test compound(s) with the cloned serotonin 5-HT2A binding site. • Reference: Methods in Molecular Biology, 2002, 190, 31-49
Compounds 1, 2 and 3 bind weakly to 5-HT2A receptor when tested by the in-vitro radioligand binding technique on human recombinant 5-HT2A receptor. The Ki values tabulated below are average of three independent experiments.

Turning to `CC12CC3CC(C)(C1)CC(N)(C3)C2` [memantine], the discriminative index entry with Male Wistar rats [1] was “No significant increase”. Further, in the experiment with Male Wistar rats [2], the “change in hippocampal theta power” value is listed as “no change”. Moreover, in the experiment on Male Wistar rats [3], the “change in hippocampal acetylcholine levels” value is on record as “moderate change”.

One may read the Ki as the dissociation constant of the complex between target and ligand, obtained from inhibition or displacement. For `COc1ccc2c(c1)c(CN1CCN(C)CC1)cn2S(=O)(=O)c1ccc(C(C)C)cc1` [Compound 3, 1-[(4-Isopropylphenyl)sulfonyl]-5-methoxy-3-[(4-methyl-1-piperazinyl)methyl]-1H-indole dihydrochloride], the Ki in experiment [4] was determined as 926 ± 317 nM. On the same count and under the same terms, for `COc1ccc2c(c1)c(CN1CCN(C)CC1)cn2S(=O)(=O)c1ccccc1Br` [Compound 1, 1-[(2-Bromophenyl)sulfonyl]-5-methoxy-3-[(4-methyl-1-piperazinyl)methyl]-1H-indole dimesylate monohydrate] the value was 2510 ± 377 nM; for `COc1ccc2c(c1)c(CN1CCN(C)CC1)cn2S(=O)(=O)c1ccc(F)cc1` [Compound 2, 1-[(4-Fluorophenyl)sulfonyl]-5-methoxy-3-[(4-methyl-1-piperazinyl)methyl]-1H-indole dihydrochloride], > 10000 nM.
